The text below walks through data of PMC6554663, “Pharmaceutical Effects of Inhibiting the Soluble Epoxide Hydrolase in Canine Osteoarthritis” (Frontiers in Pharmacology, 2019).

The structures appear in SMILES notation.

The data set concerns Canine chondrocytes (CnC). The data set is described as follows: IL1β induced chondrocyte cytotoxicity (Alamar Blue). Type of data set: cell-based. Conditions: meloxicam 1 μg/mL, EET 0.4 μg/mL total, 48 h. The method, then:
Canine chondrocytes (CnC) were purchased from Cell Applications, Inc. […] Cells were kept at room temperature and monitored for detachment (∼2 min). Detached cells were added to 3× volume of full growth media and centrifuged to remove trypsin. Cells were reseeded at a concentration of 15,000 cells/cm^2 to reach 80% confluence in 3 days. Cells were expanded and frozen at the third passage in CGS containing 10% DMSO. For individual experiments, fresh cells were thawed and used at passage 5. Canine chondrocytes cells were plated in 96-well plates at a density of 15,000 cells/cm^2. Optimal cell number was predetermined by a cell seeding experiment outlined in [O'Brien et al. […] After 2 h, the IL1β treated media was aspirated and replaced with complete growth media supplemented with either vehicle (0.1% ethanol), regioisomers of EETs, or meloxicam for 48-h before assessing inflammatory cytokines and cytotoxicity. Cells were also pretreated with meloxicam or EET mixture 30 min prior to adding IL1β treatment for 2-h. After IL1β was removed, treatments were added to complete growth media for 48-h as described above. Treatment conditions are described in the Section “Results.” After the CnC cells were treated for 48-h under conditions described above, the media was removed and replaced with complete media containing 10% Alamar Blue (Life Technologies, catalog number DAL1025). The Alamar Blue assay relies on the metabolism of non-fluorescent resazurin to the highly fluorescent resorufin by healthy cells. Fluorescent intensity can be used to track cytotoxicity after xenobiotic treatments ([Larson et al., 1997]). After the addition of Alamar Blue, plates were protected from light and incubated at […] in a 5% CO2 atmosphere for 8 h. The conversion of resazurin was monitored by reading fluorescence at 570 excitations and 585 emission on a plate reader (Tecan […]) and cytotoxicity was calculated as the ratio of fluorescence from treated cells to non-treated controls.
On the technique in general: The colour change of resazurin is a common sign of viable cells or microbes.

Regarding `Cc1cnc(NC(=O)C2=C(O)c3ccccc3S(=O)(=O)N2C)s1` [Meloxicam], for the setting “10 ng/mL IL1β 2 h”, the “IL1β induced cytotoxicity, treatment added after IL1β” value is given as “did not result in significant reduction in cytotoxicity” and the “IL1β induced cytotoxicity, treatment added before IL1β” value was “significantly reduced”. The “effect on healthy CnC cells (cytotoxicity, Alamar Blue)” value (absence of IL1β) was “no effect”.
